Laboratory results taken from patent publication US7737139B2, “Sulfonic acids, their derivatives and pharmaceutical compositions containing them” (Dompe PHA.R.MA S.p.A., priority 2003, dated 2010).
Where a name gives a salt, the structure may show the parent alone.

tested on: human PMNs; test: IL-8 induced human PMN chemotaxis assay; format: cell-based; settings: compounds marked * tested at c = 10^−7; human PMNs chemotaxis induced by IL-8 (100 ng/mL)

SMILES	inhibition at 0.1 µM
CS(=O)(=O)Nc1ccc(/C=C/S(N)(=O)=O)cc1 [Compound 17, E-2-[4-(methanesulfonylamino)phenyl] ethenesulfonamide]	41 ± 17%
CNS(=O)(=O)C(C)c1ccc(CC(C)C)cc1 (racemic) [Compound 43, (±)-1-(4-isobutylphenyl)ethane-N-methyl sulfonamide]	36 ± 15%
CNS(=O)(=O)/C=C/c1ccc(CC(C)C)cc1 [Compound 22, E-2-(4-isobutylphenyl)ethene-N-methyl sulfonamide]	41 ± 9%

tested on: human PMNs; test: IL-8 induced human PMN chemotaxis assay; format: cell-based; settings: c = 10^−8 M; human PMNs chemotaxis induced by IL-8 (100 ng/mL)
Experimental: The compounds of formula (I) were evaluated in vitro for their ability to inhibit chemotaxis of polymorphonucleate leukocytes (hereinafter referred to as PMNs) and monocytes induced by the fractions of IL-8 and GRO-α. For this purpose, in order to isolate the PMNs from heparinized human blood, taken from healthy adult volunteers, mononucleates were removed by means of sedimentation on dextran (according to the procedure disclosed by W. J. Ming et al, J. Immunol., 138, 1469, 1987) and red blood cells by a hypotonic solution. The cell vitality was calculated by exclusion with Trypan blue, whilst the ratio of the circulating polymorphonucleates was estimated on the cytocentrifugate after staining with Diff Quick.
Human recombinant IL-8 (Pepro Tech) was used as stimulating agents in the chemotaxis experiments, giving practically identical results: the lyophilized protein was dissolved in a volume of HBSS containing 0.2% bovin serum albumin (BSA) so thus to obtain a stock solution having a concentration of 10^−5 M to be diluted in HBSS to a concentration of 10^−9 M, for the chemotaxis assays.
During the chemotaxis assay (according to W. Falket et al., J. Immunol. Methods, 33, 239, 1980) PVP-free filters with a porosity of 5 μm and microchambers suitable for replication were used.
The compounds of formula (I) were evaluated at a concentration ranging between 10^−6 and 10^−10 M; for this purpose they were added, at the same concentration, both to the […] of the microchamber. Evaluation of the ability of the compounds of the invention of formula I to inhibit IL-8-induced chemotaxis of human monocytes was carried out according to the method disclosed by Van Damme J. et al. (Eur. J. Immunol., 19, 2367, 1989).
Biological results of some representative compounds in the IL-8 induced PMN chemotaxis test are reported in table II (inhibition data, C=10^−8 M).

SMILES	inhibition at 0.01 µM
CN(C)CCCNS(=O)(=O)/C=C/c1ccc(OS(=O)(=O)C(F)(F)F)cc1 [Compound 20, E-2-[4-(trifluoromethanesulfonyloxy)phenyl]ethene-(N,N-dimethylaminopropyl)sulfonamide]	60 ± 1%
CC(=O)NS(=O)(=O)C(C)c1ccc(CC(C)C)cc1 (racemic) [Compound 47, (±)-1-(4-isobutylphenyl)ethane-N-acetyl sulfonamide]	40 ± 17%
CN(C)CCCNS(=O)(=O)/C=C/c1ccc(NS(C)(=O)=O)cc1 [Compound 21, E-2-[4-(methanesulfonylamino)phenyl] ethene-(N,N-dimethylaminopropyl) sulfonamide]	31 ± 6%
CC(C)Cc1ccc(/C=C/S(=O)(=O)NCCCN(C)C)cc1 [Compound 18, E-2-(4-isobutylphenyl)ethene(N,N-dimethylaminopropyl) sulfonamide]	40 ± 1%
C/C(=C\S(N)(=O)=O)c1ccc(CC(C)C)cc1 [Compound 50, E-2-(4-isobutylphenyl)-2-methyl-ethenesulfonamide]	32 ± 1%
CC(C)Cc1ccc([C@@H](C)S(=O)(=O)O)cc1 [Compound 1, (−)-1-(4-isobutylphenyl) ethanesulfonic acid sodium salt]	55 ± 7%
CC(c1cccc(C(=O)c2ccccc2)c1)S(=O)(=O)NCCCN(C)C (racemic) [Compound 36, (±)-1-(3-benzoylphenyl)ethane-N-(N,N-dimethylaminopropyl) sulfonamide]	49 ± 14%
NS(=O)(=O)/C=C/c1cccc(C(=O)c2ccccc2)c1 [Compound 15, E-2-(3-benzoylphenyl) ethenesulfonamide]	66 ± 10%
CC(C)Cc1ccc([C@H](C)S(=O)(=O)O)cc1 [Compound 2, (+)-1-(4-isobutylphenyl) ethanesulfonic acid sodium salt]	35 ± 7%
CC(C)Cc1ccc(/C=C/S(=O)(=O)O)cc1 [Compound 10, E-2-(4-isobutylphenyl)ethenesulfonic acid sodium salt]	45 ± 4%
CC(c1cccc(C(=O)c2ccccc2)c1)S(=O)(=O)O (racemic) [Compound 8, sodium salt]	65 ± 4%
CC(C)C(=O)c1ccc(CS(N)(=O)=O)n1C [Compound 30, (1-methyl-5-isobutirrylpyrrolyl)-1-methanesulfonamide]	50 ± 1%
CC(=O)c1ccc(CS(=O)(=O)O)n1C [Compound 7, (1-methyl-5-acetylpyrrolyl)-1-methanesulfonic acid sodium salt]	35 ± 2%
CC(C)Cc1ccc(/C=C/S(N)(=O)=O)cc1 [Compound 14, E-2-(4-isobutylphenyl) ethenesulfonamide]	41 ± 17%
CC(=O)c1ccc(CS(N)(=O)=O)n1C [Compound 31, (1-methyl-5-acetylpyrrolyl)-1-methanesulfonamide]	39 ± 4%
